In ChEMBL document CHEMBL1201862, “PubChem BioAssay data set” (2004):
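All cell lines were grown in 96-well plates and treated with compound for 48 hours. At the GI50, growth is halved.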 The source made the active and inactive calls. Cut-off read from the data, not from the text of the source: active = GI50 up to about 1.1 µM and inactive = higher.

What was measured:
Experiment in all cases: growth of human tumour cells (NCI), 48 h
[1] = test system: OVCAR-5
[2] = test system: SK-MEL-2
[3] = test system: TK-10
[4] = test system: SK-OV-3
[5] = test system: KM12
[6] = test system: Malme-3M
[7] = test system: SN12C
[8] = test system: NCI-H23
[9] = test system: MOLT-4
[10] = test system: A549
[11] = test system: M14
[12] = test system: SK-MEL-5
[13] = test system: CAKI-1
[14] = test system: CCRF-CEM
[15] = test system: SF-268
[16] = test system: SNB-19
[17] = test system: MCF7
[18] = test system: MDA-MB-435
[19] = test system: Hs-578T
[20] = test system: SF-295

Measured: GI50

CC(=O)n1c2c(c(=O)n1-c1ccccc1)[S+]([O-])CCC2 (centres undefined)
inactive: [1] > 100 µM | [2] > 84.7 µM | [3] > 100 µM | [4] > 100 µM | [5] 9.1 µM | [6] > 56.4 µM | [7] > 91.4 µM | [8] > 100 µM | [9] 1.25 µM | [10] > 92.9 µM | [11] 49.7 µM | [12] 62.4 µM | [13] 55.5 µM | [14] 7.5 µM | [15] > 100 µM | [16] > 100 µM

Cc1nc2ccccc2c(=O)n1NC(=O)c1ccccc1[N+](=O)[O-]
inactive: [1] > 100 µM | [17] > 100 µM | [3] > 100 µM | [4] > 100 µM | [5] > 100 µM | [6] > 100 µM | [7] > 100 µM | [8] > 100 µM | [9] > 100 µM | [10] > 100 µM | [11] > 100 µM | [18] > 100 µM | [19] 33.9 µM | [12] > 100 µM | [20] > 100 µM | [14] > 100 µM | [15] > 100 µM | [16] > 100 µM

Cc1c(C(=O)O)n(C)c(=O)n(C)c1=O
inactive: [1] > 100 µM | [2] > 100 µM | [3] > 100 µM | [4] > 100 µM | [5] > 100 µM | [6] > 100 µM | [7] > 100 µM | [8] > 100 µM | [9] > 100 µM | [10] > 100 µM | [11] > 100 µM | [12] > 100 µM | [13] > 100 µM | [20] > 100 µM | [14] > 100 µM | [15] > 100 µM | [16] > 100 µM

CCOC(=O)c1c(N)sc2c1C(C(=O)OCC)CC2 (centres undefined)
inactive: [1] > 100 µM | [17] > 100 µM | [2] > 100 µM | [3] > 100 µM | [5] > 100 µM | [6] 74.1 µM | [7] 40.5 µM | [8] > 100 µM | [9] 35.6 µM | [10] > 100 µM | [11] > 100 µM | [19] 93.8 µM | [12] > 100 µM | [16] > 100 µM

CC(C)(C)OC(=O)C1CC[C@@H](CC(=O)Oc2ccc([N+](=O)[O-])cc2)N1 (some centres undefined)
inactive: [1] > 100 µM | [17] > 100 µM | [2] > 100 µM | [3] > 100 µM | [4] > 100 µM | [5] > 100 µM | [6] > 100 µM | [7] > 100 µM | [8] > 100 µM | [9] > 100 µM | [10] > 100 µM | [11] > 100 µM | [18] > 100 µM | [12] > 100 µM | [13] > 100 µM | [20] > 100 µM | [14] > 100 µM | [16] > 100 µM

C=C1C(=O)C23[C@H](O)C1CC[C@H]2[C@]12COC3(O)[C@@H](O)[C@@H]1C(C)(C)CC[C@@H]2O
inactive: [1] 18.5 µM | [2] 2.28 µM | [3] 17.2 µM | [4] 17.1 µM | [5] 16.9 µM | [6] 2.49 µM | [7] 20.1 µM | [8] 13.5 µM | [9] 3.27 µM | [10] 23.3 µM | [11] 5.57 µM | [12] 15.1 µM | [13] 1.98 µM | [20] 17.6 µM | [14] 3.03 µM | [15] 4.76 µM | [16] 18.5 µM

COc1cc2cccc(NC(=O)c3cc(OC)c(OC)c(OC)c3Br)c2cc1OC
inactive: [1] 10 µM | [2] 19.8 µM | [3] 29.2 µM | [4] 22.5 µM | [5] 11.1 µM | [6] 18.5 µM | [7] 16.6 µM | [8] 8 µM | [9] 2.79 µM | [10] 14.1 µM | [11] 11.3 µM | [12] 3.24 µM | [13] 17.6 µM | [20] 12.5 µM | [14] 4.56 µM | [15] 18.5 µM | [16] 14.2 µM

Clc1ccc(SC(/C=C/NNC2=NN=C(c3ccccc3)C(c3ccccc3)N2)c2ccccc2)cc1 (centres undefined)
inactive: [1] 33.8 µM | [2] 18.7 µM | [3] 36.5 µM | [4] 68.1 µM | [5] 21 µM | [6] 18.2 µM | [7] 29.4 µM | [8] 10.4 µM | [9] 11.2 µM | [10] 29.2 µM | [11] 18.5 µM | [12] 14.7 µM | [13] 12.3 µM | [20] 19.3 µM | [14] 17.1 µM | [15] 14.4 µM | [16] 80.5 µM
